Data from article PMC10336775 (Proteins, 2022).

Biological target: afRubisco (Archaeoglobus fulgidus, UniProt O28635)
Experiment: coupled NADH assay of 3PGA formed
Format: biochemical
Settings: 2 mM RuBp, 10 mM NaHCO3, 20 mM MgCl2, pH 8.2, 65 C; carboxylase activity

afRubisco, sequence (O28635 whole entry): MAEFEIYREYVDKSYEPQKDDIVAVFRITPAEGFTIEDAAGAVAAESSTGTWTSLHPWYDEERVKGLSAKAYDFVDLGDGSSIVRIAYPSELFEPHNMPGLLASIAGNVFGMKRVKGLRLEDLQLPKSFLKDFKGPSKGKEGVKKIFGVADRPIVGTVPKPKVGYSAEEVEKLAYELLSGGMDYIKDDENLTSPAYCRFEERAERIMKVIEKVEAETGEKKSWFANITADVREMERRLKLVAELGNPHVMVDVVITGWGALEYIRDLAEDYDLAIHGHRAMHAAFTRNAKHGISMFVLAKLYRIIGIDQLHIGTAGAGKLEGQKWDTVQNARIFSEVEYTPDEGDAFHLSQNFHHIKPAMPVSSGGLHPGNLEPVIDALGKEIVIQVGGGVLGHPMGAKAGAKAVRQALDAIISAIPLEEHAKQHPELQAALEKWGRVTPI

Q: For `O=C(COP(=O)(O)O)[C@H](O)[C@H](O)COP(=O)(O)O` [RuBp], which “coupled NADH assay of 3PGA formed (340 nm)” value is on record?
A: Activated afRubisco has very low carboxylase activity at room temperature but has much higher
